In ChEMBL document CHEMBL5233248, “Resveratrol - A comprehensive review of recent advances in anticancer drug design and development” (Eur J Med Chem, 2020):
Values joined by “and” are separate entries in the source; they are usually repeats but may differ in a detail not shown here. Equal entries are not always repeated. Structures can show the parent of a compound that is named as a salt.

Key:
MCF7 [1] = test: Anticancer activity against human MCF7 cells assessed as cell growth inhibition incubated for 3 days by MTT assay; type: functional, cell-based; settings: MCF7, 72 h
HT-29 [2] = test: Anticancer activity against human HT-29 cells assessed as cell growth inhibition incubated for 3 days by MTT assay; type: functional, cell-based; settings: HT-29, 72 h
HEK293 = test: Anticancer activity against human HEK293 cells assessed as cell growth inhibition incubated for 3 days by MTT assay; type: functional, cell-based; settings: HEK293, 72 h
PANC-1 [3] = test: Anticancer activity against human PANC-1 cells assessed as cell growth inhibition incubated for 48 hrs by SRB assay; type: functional; settings: Homo sapiens, PANC-1, 48 h
HepG2 [4] = test: Anticancer activity against human HepG2 cells assessed as cell growth inhibition incubated for 3 days by MTT assay; type: functional, cell-based; settings: HepG2, 72 h
HeLa = test: Anticancer activity against human HeLa cells assessed as cell growth inhibition measured after 72 hrs by MTT assay; type: functional, cell-based; settings: Homo sapiens, HeLa, 72 h; read-out: IC50
A549 = test: Anticancer activity against human A549 cells assessed as cell growth inhibition measured after 72 hrs by MTT assay; type: functional, cell-based; settings: Homo sapiens, A549, 72 h
[5] = Anticancer activity against Lung adenocarcinoma cell line assessed as cell growth inhibition measured after 72 hrs by MTT assay; type: functional, cell-based; settings: Lung adenocarcinoma cell line, 72 h
MDA-MB-231 [6] = test: Anticancer activity against human MDA-MB-231 cells assessed as reduction in cell viability measured after 48 hrs at 150 uM by MTT assay relative to control; type: functional
B16-F10 = test: Anti cancer activity against mouse B16-F10 cells assessed as cell growth inhibition incubated for 40 hrs by Almar Blue stained fluorescence-based assay; type: functional; settings: B16-F10, 40 h
HepG2 [7] = test: Anticancer activity against human HepG2 cells assessed as cell growth inhibition incubated for 24 hrs by MTT assay; type: functional, cell-based; settings: HepG2, 24 h
SK-BR-3 = test: Anticancer activity against human SK-BR-3 cells assessed as cell growth inhibition incubated for 24 hrs by MTT assay; type: functional, cell-based; settings: SK-BR-3, 24 h
HT-29 [8] = test: Anticancer activity against human HT-29 cells assessed as cell growth inhibition incubated for 24 hrs by MTT assay; type: functional, cell-based
HCT-116 = test: Anticancer activity against human HCT-116 cells assessed as cell growth inhibition; type: functional, cell-based
[9] = Anticancer activity against human AZ-AHR cells assessed as cell growth inhibition incubate for 24 hrs by MTT assay; type: functional, cell-based
Aromatase = target: T1, Aromatase (Homo sapiens, UniProt P11511)
T1 sequence (P11511 whole entry): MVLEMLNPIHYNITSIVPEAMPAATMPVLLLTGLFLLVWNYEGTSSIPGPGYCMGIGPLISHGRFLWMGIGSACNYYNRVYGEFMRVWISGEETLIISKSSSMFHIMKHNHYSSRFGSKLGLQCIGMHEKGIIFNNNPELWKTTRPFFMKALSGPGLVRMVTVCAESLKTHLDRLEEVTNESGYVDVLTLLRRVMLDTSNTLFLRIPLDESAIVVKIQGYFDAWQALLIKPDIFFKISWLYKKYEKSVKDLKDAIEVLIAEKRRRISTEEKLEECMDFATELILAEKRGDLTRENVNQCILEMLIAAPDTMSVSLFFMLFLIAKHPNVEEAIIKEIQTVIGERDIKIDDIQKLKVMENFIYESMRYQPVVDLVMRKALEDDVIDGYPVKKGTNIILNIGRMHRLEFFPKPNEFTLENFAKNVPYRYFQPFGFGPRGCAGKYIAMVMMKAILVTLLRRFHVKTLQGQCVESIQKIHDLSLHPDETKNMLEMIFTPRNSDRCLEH
Description: Inhibition of human Aromatase

CYP1A = CYP1A (Homo sapiens, UniProt P04798+P05177); test: Inhibtion of CYP1A (unknown origin); type: ADME, protein assay
MDA-MB-231 [10] = test: Anticancer activity against human MDA-MB-231 cells assessed as cell growth inhibition by CyQuant assay; type: functional, cell-based
U-251 = test: Anticancer activity against human U-251MG cells assessed as cell growth inhibition by CyQuant assay; type: functional, cell-based
MCF7 [11] = test: Anticancer activity against human MCF7 cells assessed as cell growth inhibition by CyQuant assay; type: functional, cell-based
[12] = Cytotoxicity against mouse NIH3T3 cells assessed as cell growth inhibition by CyQuant assay; type: toxicity, cell-based
PANC-1 [13] = test: Anticancer activity against human PANC-1 cells assessed as cell growth inhibition by CyQuant assay; type: functional, cell-based
Ishikawa = test: cells; settings: Homo sapiens
Description: Anti-tumor activity against human ishikawa cells assessed as anti-estrogenic potential

Q: With `OC[C@H]1O[C@@H](Oc2cc(/C=C/c3ccc(O)cc3)cc(O[C@@H]3O[C@H](CO)[C@@H](O)[C@H](O)[C@H]3O)c2)[C@H](O)[C@@H](O)[C@@H]1O` as the compound, how does the IC50 (MCF7 [1]) read?
A: Its IC50 is 72 µM.

Q: And the IC50 (HT-29 [2])?
A: The IC50 was 24 µM.

Q: What about the IC50 (HEK293) of the same compound?
A: The IC50 was > 100 µM.

Q: For `COc1cc(/C=C/c2ccc(NC(=O)CSc3nnc(-c4ccccc4F)o3)cc2)cc(OC)c1`, which GI50 (PANC-1 [3]) is on record?
A: Its GI50 is 0.064 µM.

Q: Which IC50 (HepG2 [4]) does the source give for `CCOc1cc(/C=C/c2ccc(O)c(O)c2)cc(OCC)c1` here?
A: The IC50 was 67.2 µM.

Q: Which IC50 (MCF7 [1]) does the source give for `O=S(=O)(O)Oc1cc(O)cc(/C=C/c2ccc(O)cc2)c1` here?
A: Its IC50 is 17 µM.

Q: And the IC50 (HT-29 [2])?
A: Its IC50 is 115 µM.

Q: And the IC50 (HEK293)?
A: The IC50 was > 100 µM.

Q: With `COc1cc(/C=C/c2ccc(NC(=O)CSc3nnc(-c4ccc(C(F)(F)F)cc4)o3)cc2)cc(OC)c1` as the compound, how does the GI50 (PANC-1 [3]) read?
A: The GI50 was 0.064 µM.

Q: With `COc1ccc(-c2nnc(SCC(=O)Nc3ccc(/C=C/c4cc(OC)cc(OC)c4)cc3)o2)cc1` as the compound, how does the GI50 (PANC-1 [3]) read?
A: The GI50 was 0.064 µM.

Q: What does the source list for `COc1cccc2c1C(=O)c1c(O)c3c(c(O)c1C2=O)C[C@@](O)(C(=O)CO)C[C@@H]3O[C@H]1C[C@H](N)[C@H](O)[C@H](C)O1` [DOXORUBICIN HYDROCHLORIDE]?
A: IC50 (HeLa): 0.48 µM; IC50 (A549): 2.36 µM; IC50 [5]: 1.18 µM

Q: Which Activity (MDA-MB-231 [6]) does the source give for `CC(C)(C)C(=O)Oc1ccc(/C=C/c2cc(O)cc(O)c2)cc1` here?
A: Its Activity is 7.7%.

Q: For `COc1ccc(/C=C\c2ccc(OC)c(OC)c2)cc1` [7Z-3,4,4'-TRIMETHOXYSTILBENE], which IC50 (B16-F10) is on record?
A: The IC50 was 1 µM.

Q: For `COC(=O)c1cc(/C=C/c2cc(O)cc(O)c2)ccc1O`, which IC50 (HepG2 [7]) is on record?
A: Its IC50 is 18.9 µM.

Q: And the IC50 (SK-BR-3)?
A: The IC50 was 11.3 µM.

Q: And the IC50 (HT-29 [8]; ht-29)?
A: Its IC50 is 44.3 µM and 18.9 µM.

Q: Which GI50 (PANC-1 [3]) does the source give for `COc1cc(/C=C/c2ccc(NC(=O)CSc3nnc(-c4c(F)cccc4F)o3)cc2)cc(OC)c1` here?
A: The GI50 was 0.064 µM.

Q: For `COc1cc(/C=C/c2ccc(NC(=O)CSc3nnc(-c4ccc(F)cc4)o3)cc2)cc(OC)c1`, which GI50 (PANC-1 [3]) is on record?
A: Its GI50 is 0.064 µM.

Q: For `COc1cc(/C=C/c2ccc(OC(=O)CSc3nnc(-c4c(F)cccc4F)o3)cc2)cc(OC)c1`, which GI50 (PANC-1 [3]) is on record?
A: Its GI50 is 0.064 µM.

Q: For `COc1ccc(-c2nnc(SCC(=O)Oc3ccc(/C=C/c4cc(OC)cc(OC)c4)cc3)o2)cc1`, which GI50 (PANC-1 [3]) is on record?
A: Its GI50 is 0.064 µM.

Q: What does the source list for `CC(C)CC(=O)Oc1ccc(/C=C/c2cc(OC(=O)CC(C)C)cc(OC(=O)CC(C)C)c2)cc1`?
A: IC50 (HeLa): 4.9 µM; IC50 (A549): 4.9 µM; IC50 [5]: 4.9 µM

Q: Which GI50 (PANC-1 [3]) does the source give for `COc1cc(/C=C/c2ccc(OC(=O)CSc3nnc(-c4ccc(C)cc4)o3)cc2)cc(OC)c1` here?
A: The GI50 was 0.064 µM.

Q: With `Oc1ccc(/C=C\c2cc(O)cc(O)c2)cc1` [CIS-RESVERATROL] as the compound, how does the IC50 (HCT-116) read?
A: Its IC50 is 25.1 µM.

Q: And the IC50 [9]?
A: Its IC50 is 25.1 µM.

Q: With `CC(C)C(=O)Oc1ccc(/C=C/c2cc(OC(=O)C(C)C)cc(OC(=O)C(C)C)c2)cc1` as the compound, how does the IC50 (HeLa) read?
A: Its IC50 is 5.1 µM.

Q: What about the IC50 (A549) of the same compound?
A: Its IC50 is 5.1 µM.

Q: And the IC50 [5]?
A: Its IC50 is 5.1 µM.

Q: Which IC50 (MCF7 [1]) does the source give for `O=S(=O)(O)Oc1ccc(/C=C/c2cc(O)cc(OS(=O)(=O)O)c2)cc1` here?
A: The IC50 was 26 µM.

Q: And the IC50 (HT-29 [2])?
A: The IC50 was 56 µM.

Q: What about the IC50 (HEK293) of the same compound?
A: Its IC50 is > 100 µM.

Q: Which IC50 (B16-F10) does the source give for `COc1ccc(/C=C\c2cc(OC)c(OC)c(OC)c2)c(OC)c1` here?
A: The IC50 was 1 µM.

Q: For `Oc1ccc(/C=C/c2cc(O)cc(OCc3ccccc3)c2)cc1`, which IC50 (Aromatase) is on record?
A: The IC50 was 2.7 µM.

Q: What about the IC50 (HeLa) of the same compound?
A: The IC50 was 1.41 µM.

Q: What about the IC50 (CYP1A) of the same compound?
A: Its IC50 is 0.14 µM.

Q: What about the IC50 (A549) of the same compound?
A: Its IC50 is 11.8 µM.

Q: And the IC50 [5]?
A: Its IC50 is 7.96 µM.

Q: Which results are given for `COc1cc(/C=C/c2ccc(OC(C)=O)cc2)cc(OC)c1`?
A: IC50 (MDA-MB-231 [10]): 18.5 µM; IC50 (U-251): 6.7 µM; IC50 (MCF7 [11]): 10.8 µM; IC50 [12]: > 20 µM; IC50 (PANC-1 [13]): 18.1 µM

Q: With `COc1ccc(/C=C/c2cc(OC)cc(OC)c2)cc1` [TRISMETHOXYRESVERATROL] as the compound, how does the IC50 (Aromatase) read?
A: Its IC50 is 13.6 µM.

Q: What about the IC50 (HCT-116) of the same compound?
A: Its IC50 is 1.1 µM.

Q: And the IC50 (CYP1A)?
A: The IC50 was 0.003 µM.

Q: What about the IC50 (HepG2 [7]) of the same compound?
A: The IC50 was > 100 µM.

Q: What about the IC50 (SK-BR-3) of the same compound?
A: The IC50 was 112 µM.

Q: What about the IC50 (Ishikawa) of the same compound?
A: The IC50 was 12.6 µM.

Q: And the IC50 (HT-29 [8]; Homo sapiens, HT-29, 24 h)?
A: Its IC50 is 14 µM.

Q: For `COc1cc(/C=C/c2ccc(NC(=O)CSc3nnc(-c4cccc(C(F)(F)F)c4)o3)cc2)cc(OC)c1`, which GI50 (PANC-1 [3]) is on record?
A: Its GI50 is 0.064 µM.

Q: For `COc1cc(/C=C/c2ccc(NC(=O)CSc3nnc(-c4cnccn4)o3)cc2)cc(OC)c1`, which GI50 (PANC-1 [3]) is on record?
A: The GI50 was 0.064 µM.
